According to patent US9539252B2, “Piperazine-substituted benzothiophene derivatives as antipsychotic agents” (OTSUKA PHARMACEUTICAL CO., LTD., priority 2011, dated 2017):

Assay: Solubility in oil (sesame oil, benzyl benzoate), visual observation
Details: oil or lipid, thermodynamic from solid

Compound: O=C(NCCc1ccccc1)OCn1c(=O)ccc2ccc(OCCCCN3CCN(c4cccc5sccc45)CC3)cc21 [Example 116, N-phenethylcarbamic acid 7-[4-(4-75 benzo[b]thiophen-4-ylpiperazin-1-yl)butoxy]-2-oxo-2H-quinolin-1-ylmethyl ester]
- solubility (benzyl benzoate): > 100 mg/mL

Compound: CC(C)CCC(=O)OCN1C(=O)CCc2ccc(OCCCCN3CCN(c4cccc5sccc45)CC3)cc21 [Example 105, 4-methylpentanoic acid 7-[4-(4-benzo[b]thiophen-4-ylpiperazin-1-yl)butoxy]-2-oxo-3,4-dihydro-2H-quinolin-1-ylmethyl ester]
- solubility (benzyl benzoate): > 100 mg/mL

Compound: CCCCN(C)C(=O)OCn1c(=O)ccc2ccc(OCCCCN3CCN(c4cccc5sccc45)CC3)cc21 [Example 36, N-butyl-N-methylcarbamic acid 7-[4-(4-benzo[b]thiophen-4-ylpiperazin-1-yl)butoxy]-2-oxo-2H-quinolin-1-ylmethyl ester]
- solubility (benzyl benzoate): > 100 mg/mL

Compound: CCCCCCCOC(=O)OCN1C(=O)CCc2ccc(OCCCCN3CCN(c4cccc5sccc45)CC3)cc21 [Example 145, carbonic acid 7-[4-(4-benzo[b]thiophen-4-ylpiperazin-1-yl)butoxy]-2-oxo-3,4-dihydro-2H-quinolin-1-ylmethyl ester heptyl ester]
- solubility (benzyl benzoate): > 100 mg/mL

Compound: CCCCCCCCCCCCCC(=O)OCN1C(=O)CCc2ccc(OCCCCN3CCN(c4cccc5sccc45)CC3)cc21 [Example 82, tetradecanoic acid 7-[4-(4-benzo[b]thiophen-4-ylpiperazin-1-yl)butoxy]-2-oxo-3,4-dihydro-2H-quinolin-1-ylmethyl ester]
- solubility (benzyl benzoate): > 100 mg/mL

Compound: CCCCCCCCCCCCCCCCCCNC(=O)OCN1C(=O)CCc2ccc(OCCCCN3CCN(c4cccc5sccc45)CC3)cc21 [Example 75, N-octadecylcarbamic acid 7-[4-(4-benzo[b]thiophen-4-ylpiperazin-1-yl)butoxy]-2-oxo-3,4-dihydro-2H-quinolin-1-ylmethyl ester]
- solubility (benzyl benzoate): > 100 mg/mL
- solubility (sesame oil): > 100 mg/mL

Compound: CN(C)C(=O)OCn1c(=O)ccc2ccc(OCCCCN3CCN(c4cccc5sccc45)CC3)cc21 [Example 56, N,N-dimethylcarbamic acid 7-[4-(4-benzo[b]thiophen-4-ylpiperazin-1-yl)butoxy]-2-oxo-2H-quinolin-1-ylmethyl ester]
- solubility (benzyl benzoate): > 100 mg/mL

Compound: CCCCNC(=O)OCN1C(=O)CCc2ccc(OCCCCN3CCN(c4cccc5sccc45)CC3)cc21 [Example 27, N-butylcarbamic acid 7-[4-(4-benzo[b]thiophen-4-ylpiperazin-1-yl)butoxy]-2-oxo-3,4-dihydro-2H-quinolin-1-ylmethyl ester]
- solubility (benzyl benzoate): > 100 mg/mL

Compound: O=C(OCn1c(=O)ccc2ccc(OCCCCN3CCN(c4cccc5sccc45)CC3)cc21)N1CCSCC1 [Example 153, thiomorpholine-4-carboxylic acid 7-[4-(4-benzo[b]thiophen-4-ylpiperazin-1-yl)butoxy]-2-oxo-2H-quinolin-1-ylmethyl ester]
- solubility (benzyl benzoate): > 100 mg/mL

Compound: O=C(CCC(F)(F)F)OCN1C(=O)CCc2ccc(OCCCCN3CCN(c4cccc5sccc45)CC3)cc21 [Example 124, 4,4,4-trifluorobutyric acid 7-[4-(4-benzo[b]thiophen-4-ylpiperazin-1-yl)butoxy]-2-oxo-3,4-dihydro-2H-quinolin-1-ylmethyl ester]
- solubility (benzyl benzoate): > 100 mg/mL

Compound: CCCCCCOC(=O)OCn1c(=O)ccc2ccc(OCCCCN3CCN(c4cccc5sccc45)CC3)cc21 [Example 175, carbonic acid 7-[4-(4-benzo[b]thiophen-4-ylpiperazin-1-yl)butoxy]-2-oxo-2H-quinolin-1-ylmethyl ester hexyl ester]
- solubility (benzyl benzoate): > 100 mg/mL

Compound: CCCCCCCCCCCCCCCCCCN(C)C(=O)OCn1c(=O)ccc2ccc(OCCCCN3CCN(c4cccc5sccc45)CC3)cc21 [Example 44, N-methyl-N-octadecylcarbamic acid 7-[4-(4-benzo[b]thiophen-4-ylpiperazin-1-yl)butoxy]-2-oxo-2H-quinolin-1-ylmethyl ester]
- solubility (benzyl benzoate): > 100 mg/mL
- solubility (sesame oil): > 100 mg/mL

Compound: O=C(OCn1c(=O)ccc2ccc(OCCCCN3CCN(c4cccc5sccc45)CC3)cc21)C1CCCCCC1 [Example 119, cycloheptanecarboxylic acid 7-[4-(4-benzo[b]thiophen-4-ylpiperazin-1-yl)butoxy]-2-oxo-2H-quinolin-1-ylmethyl ester]
- solubility (benzyl benzoate): > 100 mg/mL

Compound: CNC(=O)OCN1C(=O)CCc2ccc(OCCCCN3CCN(c4cccc5sccc45)CC3)cc21 [Example 46, N-methylcarbamic acid 7-[4-(4-benzo[b]thiophen-4-ylpiperazin-1-yl)butoxy]-2-oxo-3,4-dihydro-2H-quinolin-1-ylmethyl ester]
- solubility (benzyl benzoate): > 100 mg/mL

Compound: CCCCCCCCCCCCCCCCCCCC(=O)OCN1C(=O)CCc2ccc(OCCCCN3CCN(c4cccc5sccc45)CC3)cc21 [Example 31, icosanoic acid 7-[4-(4-benzo[b]thiophen-4-ylpiperazin-1-yl)butoxy]-2-oxo-3,4-dihydro-2H-quinolin-1-ylmethyl ester]
- solubility (benzyl benzoate): > 100 mg/mL

Compound: O=C(OCN1C(=O)CCc2ccc(OCCCCN3CCN(c4cccc5sccc45)CC3)cc21)OC1CCCCC1 [Example 150, carbonic acid 7-[4-(4-benzo[b]thiophen-4-ylpiperazin-1-yl)butoxy]-2-oxo-3,4-dihydro-2H-quinolin-1-ylmethyl ester cyclohexyl ester]
- solubility (benzyl benzoate): > 100 mg/mL
- solubility (sesame oil): > 100 mg/mL

Compound: CNC(=O)OCn1c(=O)ccc2ccc(OCCCCN3CCN(c4cccc5sccc45)CC3)cc21 [Example 53, N-methylcarbamic acid 7-[4-(4-benzo[b]thiophen-4-ylpiperazin-1-yl)butoxy]-2-oxo-2H-quinolin-1-ylmethyl ester]
- solubility (benzyl benzoate): > 100 mg/mL

Compound: CCCCCCCCCCCCCCC(=O)OCn1c(=O)ccc2ccc(OCCCCN3CCN(c4cccc5sccc45)CC3)cc21 [Example 104, pentadecanoic acid 7-[4-(4-benzo[b]thiophen-4-ylpiperazin-1-yl)butoxy]-2-oxo-2H-quinolin-1-ylmethyl ester]
- solubility (benzyl benzoate): > 100 mg/mL

Compound: CCN(CC)C(=O)Oc1ccc2ccc(OCCCCN3CCN(c4cccc5sccc45)CC3)cc2n1 [Example 382, 7-[4-(4-benzo[b]thiophen-4-yl-piperazin-1-yl)-butoxy]-quinolin-2-yl diethylcarbamate]
- solubility (benzyl benzoate): > 100 mg/mL

Compound: CCCCCCCCCCNC(=O)OCn1c(=O)ccc2ccc(OCCCCN3CCN(c4cccc5sccc45)CC3)cc21 [Example 34, N-decylcarbamic acid 7-[4-(4-benzo[b]thiophen-4-ylpiperazin-1-yl)butoxy]-2-oxo-2H-quinolin-1-ylmethyl ester]
- solubility (benzyl benzoate): > 100 mg/mL

Compound: CCCCCCCCCCCCCCCNC(=O)OCn1c(=O)ccc2ccc(OCCCCN3CCN(c4cccc5sccc45)CC3)cc21 [Example 43, N-pentadecylcarbamic acid 7-[4-(4-benzo[b]thiophen-4-ylpiperazin-1-yl)butoxy]-2-oxo-2H-quinolin-1-ylmethyl ester]
- solubility (benzyl benzoate): > 100 mg/mL

Compound: CCCC(C)C(=O)OCn1c(=O)ccc2ccc(OCCCCN3CCN(c4cccc5sccc45)CC3)cc21 (stereo not shown) [Example 94, 2-methylpentanoic acid 7-[4-(4-benzo[b]thiophen-4-ylpiperazin-1-yl)butoxy]-2-oxo-2H-quinolin-1-ylmethyl ester]
- solubility (benzyl benzoate): > 100 mg/mL

Compound: CCCC(=O)OCn1c(=O)ccc2ccc(OCCCCN3CCN(c4cccc5sccc45)CC3)cc21 [Example 20, butyric acid 7-[4-(4-benzo[b]thiophen-4-ylpiperazin-1-yl)butoxy]-2-oxo-2H-quinolin-1-ylmethyl ester]
- solubility (benzyl benzoate): > 100 mg/mL

Compound: CCCOC(=O)OCn1c(=O)ccc2ccc(OCCCCN3CCN(c4cccc5sccc45)CC3)cc21 [Example 165, carbonic acid 7-[4-(4-benzo[b]thiophen-4-ylpiperazin-1-yl)butoxy]-2-oxo-2H-quinolin-1-ylmethyl ester propyl ester]
- solubility (benzyl benzoate): > 100 mg/mL

Compound: CCCCC(C)C(=O)OCN1C(=O)CCc2ccc(OCCCCN3CCN(c4cccc5sccc45)CC3)cc21 (stereo not shown) [Example 78, 2-methylhexanoic acid 7-[4-(4-benzo[b]thiophen-4-ylpiperazin-1-yl)butoxy]-2-oxo-3,4-dihydro-2H-quinolin-1-ylmethyl ester]
- solubility (benzyl benzoate): > 100 mg/mL

Compound: O=C(OCN1C(=O)CCc2ccc(OCCCCN3CCN(c4cccc5sccc45)CC3)cc21)c1cccs1 [Example 131, thiophene-2-carboxylic acid 7-[4-(4-benzo[b]thiophen-4-ylpiperazin-1-yl)butoxy]-2-oxo-3,4-dihydro-2H-quinolin-1-ylmethyl ester]
- solubility (benzyl benzoate): > 100 mg/mL

Compound: CN(Cc1ccccn1)C(=O)OCn1c(=O)ccc2ccc(OCCCCN3CCN(c4cccc5sccc45)CC3)cc21 [Example 152, N-methyl-N-pyridin-2-ylmethylcarbamic acid 7-[4-(4-benzo[b]thiophen-4-ylpiperazin-1-yl)butoxy]-2-oxo-2H-quinolin-1-ylmethyl ester]
- solubility (benzyl benzoate): > 100 mg/mL

Compound: O=C(OCn1c(=O)ccc2ccc(OCCCCN3CCN(c4cccc5sccc45)CC3)cc21)C1CCCCC1 [Example 32, cyclohexanecarboxylic acid 7-[4-(4-benzo[b]thiophen-4-ylpiperazin-1-yl)butoxy]-2-oxo-2H-quinolin-1-ylmethyl ester]
- solubility (benzyl benzoate): > 100 mg/mL

Compound: COC(=O)CCCNC(=O)OCn1c(=O)ccc2ccc(OCCCCN3CCN(c4cccc5sccc45)CC3)cc21 [Example 101, 4-{7-[4-(4-benzo[b]thiophen-4-ylpiperazin-1-yl)butoxy]-2-oxo-2H-quinolin-1-ylmethoxycarbonylamino}butyric acid methyl ester]
- solubility (benzyl benzoate): > 100 mg/mL

Compound: C=CCCCCCCCCC(=O)OCN1C(=O)CCc2ccc(OCCCCN3CCN(c4cccc5sccc45)CC3)cc21 [Example 114, undec-10-enoic acid 7-[4-(4-benzo[b]thiophen-4-ylpiperazin-1-yl)butoxy]-2-oxo-3,4-dihydro-2H-quinolin-1-ylmethyl ester]
- solubility (benzyl benzoate): > 100 mg/mL

Compound: COC(=O)CNC(=O)OCN1C(=O)CCc2ccc(OCCCCN3CCN(c4cccc5sccc45)CC3)cc21 [Example 89, {7-[4-(4-benzo[b]thiophen-4-ylpiperazin-1-yl)butoxy]-2-oxo-3,4-dihydro-2H-quinolin-1-ylmethoxycarbonylamino}acetic acid methyl ester]
- solubility (benzyl benzoate): > 100 mg/mL
